Experimental data as given in patent US11977068B2, “Method for testing ecotoxicity of disinfection by-products” (priority 2020, dated 2024).

How the values were obtained:
[1] = Acute toxicity test on second-instar brine shrimp (survival/mortality); details: brine shrimp (Artemia), in vivo, other: immersion in the water sample in culture wells
Procedure: (§1) S1, anhydrous freeze-dried eggs of a brine shrimp are hatched in artificial seawater to obtain a first-instar brine shrimp, where, a hatching temperature is (26±1)° C., the hatching is performed under a continuous aeration for a hatching time of (10-24) h, and an aeration gas source is air. After the hatching is finished, the first-instar brine shrimp and non-hatched brine shrimp eggs are separated immediately, and the first-instar brine shrimp is placed in the artificial seawater. The brine shrimp at different life stages may have different tolerance to toxicity, and therefore, a separation of the brine shrimp at different instars can avoid the instability of experimental results. S2, the first-instar brine shrimp is cultured in a light incubator for 24 h to obtain a second-instar brine shrimp, where, a culture temperature is (26±1)° C., a light time and a dark time are respectively continuous 12 h, and a light intensity in the light incubator is (1,000-3,000) Lux. S3. First, the second-instar brine shrimp is pre-placed in a water sample to be tested containing toxic substances and exposed for a predetermined time to enable the artificial seawater carried by the second-instar brine shrimp to mix uniformly with the water sample to be tested, and then the second-instar brine shrimp is put into a culture plate containing the water sample to be tested for an acute toxicity test with a time end-point of (42-54) h and a chronic toxicity test with a time end-point of (12-16) days. After the time end-point of the toxicity test is reached, the culture plate is slightly vibrated to observe the survival of the brine shrimp in each well. […] A mortality rate of the brine shrimp is obtained to calculate the toxicity of the water sample to the brine shrimp.
(§2) Hatching of a brine shrimp: 3-5 g of anhydrous freeze-dried eggs of the brine shrimp is put into a 1,500 mL beaker containing 1,200 mL of seawater. The opening of the beaker is sealed with aluminum foil and the beaker is placed in a constant temperature water bath at (26±1)° C. A small air pump is used to blow air for aeration and hatching for 12 h. After the hatching is finished, the first-instar brine shrimp is randomly picked out with a Pasteur pipette immediately and placed in a 150 mm crystallization dish containing sufficient seawater.
(§3) Culture of the brine shrimp: the first-instar brine shrimp is cultured in a light incubator for 24 h. The conditions in the light incubator are as follows: a temperature is (25±1)° C., a light intensity is 1,000 Lux, and a light time and a dark time are respectively continuous 12 h.
(§4) Acute toxicity test: 150 mL of each water sample to be tested is put into a brown bottle, four groups of the water samples with different concentrations of IAM are added into a 12-well culture plate with a pipette, with 2.5 mL of liquid in each well, and each 3 wells is an experimental group with the same concentration of the water samples. The remaining solution in each brown bottle is poured into a clean 150 mm crystallization dish. At least 30 second-instar brine shrimps are transferred into 100-150 mL of the water sample to be tested at one time by the Pasteur pipette in the crystallizing dish, respectively. The second-instar brine shrimps that have been exposed to the solution are transferred by the Pasteur pipette to the culture wells with 10 second-instar brine shrimps in each well. The culture plate is cultured in light. The survival of the brine shrimps in each well is observed after 48 h. The time difference of transferring brine shrimps within and between groups should be shortened as far as possible to avoid the influence of excessive time difference on brine shrimp growth.

brine shrimp [2] = assay: as above; details: for minimum effective concentration (defined as the concentration causing 20% death): second-instar brine shrimp
Procedure: as §1, §2, §3, §4

brine shrimp [3] = assay: Chronic toxicity test on second-instar brine shrimp (survival/mortality)
Procedure: as §1
The remaining solution in each brown bottle is poured into a clean 150 mm crystallization dish. […] The culture plate is cultured in light. […] The time difference of transferring brine shrimps within and between groups should be shortened as far as possible to avoid the influence of excessive time difference on brine shrimp growth.

Structure (SMILES) | LC50 at 48 h [1] | impact on the survival of brine shrimp in a short period (brine shrimp [2]; 544.5 μM, 48 h) | minimum effective concentration (defined as the concentration causing 20% death) (brine shrimp [2]; 48 h exposure, fitted from FIG. 2 data) | mortality rate (brine shrimp [3]; 544.5 μM (acute minimum effective concentration), 14 days exposure) | survival rate of brine shrimp (brine shrimp [3]; 544.5 μM, 14 days exposure) | LC50 at 54 h [1] | impact on the survival of brine shrimp in a short period (brine shrimp [2]; 59.588 μM, 54 h) | minimum effective concentration (defined as the concentration causing 20% death) (brine shrimp [2]; 54 h exposure, fitted from FIG. 3 data) | mortality rate (brine shrimp [3]; 59.588 μM (acute minimum effective concentration), 16 days exposure) | survival rate of brine shrimp (brine shrimp [3]; 59.588 μM, 16 days exposure)
NC(=O)CI [IAM, iodoacetamide] | 557 µM | does not cause significant impact on the survival | 544.5 µM | 100% | 0 |  |  |  |  | 
O=C(O)CI [IAA, iodoacetic acid] |  |  |  |  |  | 1050 µM | does not cause significant impact on the survival | 59.588 µM | 100% | 0
